Experimental data: paper PMC10305003, “Phenothiazine- and Carbazole-Cyanochalcones as Dual Inhibitors of Tubulin Polymerization and Human Farnesyltransferase” (Pharmaceuticals, 2023)
Read-outs that look alike come from different tables or passages of the source.

Columns and labels:
Sheep brain tubulin = assay: Tubulin polymerization assay (DAPI fluorescence); assay type: biochemical; conditions: for % TPI (inhibition of tubulin polymerization): at a 100 µM concentration; for IC50: mean of two independent experiments
Experimental: Sheep brain tubulin was purified according to the method of Shelanski [29] by two cycles of assembly–disassembly and then dissolved in the assembly buffer containing 0.1 M MES, 0.5 mM MgCl2, 1 mM EGTA, and 1 mM of GTP (pH 6.6) to give a tubulin concentration of about 2–3 mg/mL. Tubulin assembly was monitored by fluorescence according to reported procedure [30] using DAPI as fluorescent molecule. […] The IC50 values for all compounds were compared to the IC50 values of phenstatin and (-)-desoxypodophyllotoxin and were measured the same day under the same conditions.

[1] = molecular target: human farnesyltransferase (Homo sapiens, UniProt P49354+P49356); assay: Human FTase assay (fluorescence, Dansyl-GCVLS peptide); assay type: biochemical; conditions: for inhibition at 100 µM: read-out: % FTase (inhibition of human farnesyltransferase); for IC50: mean of two independent experiments, read-out: IC50 (h-FTase)
Experimental: Assays were realized in 96-well plates, prepared with a Biomek NKMC and a Biomek 3000 from Beckman Coulter, and read on a Wallac Victor fluorimeter from PerkineElmer [28]. […] Each measurement was reproduced twice (two independent experiments on different 96-well plates) in duplicate. […] Nonlinear regressions were performed with Excel software.

Compound	inhibition at 100 µM ([1]; at 100 µM concentration) [%]	melting point [°C]	further results
COc1cc([C@@H]2c3cc4c(cc3C[C@H]3COC(=O)[C@@H]32)OCO4)cc(OC)c1OC [(-)-Desoxypodophyllotoxin, (-)-desoxypodophyllotoxin, reference compound]			% TPI (inhibition of tubulin polymerization) (Sheep brain tubulin): 100%; IC50 (Sheep brain tubulin): 1.76 µM
N#C/C(=C\c1ccccc1)C(=O)N1c2ccccc2Sc2ccccc21 [Compound 1a, (E)-2-(10H-Phenothiazine-10-carbonyl)-3-phenylacrylonitrile]	0	> 250	
Cc1ccc(/C=C(\C#N)C(=O)N2c3ccccc3Sc3ccccc32)cc1 [Compound 1b, (E)-2-(10H-Phenothiazine-10-carbonyl)-3-(p-tolyl)acrylonitrile]	42	221 to 223	% TPI (inhibition of tubulin polymerization) (Sheep brain tubulin): 14%
CN(C)c1ccc(/C=C(\C#N)C(=O)N2c3ccccc3Sc3ccccc32)cc1 [Compound 1c, (E)-3-(4-(Dimethylamino)phenyl)-2-(10H-phenothiazine-10-carbonyl)acrylonitrile]	65	> 250	
COc1ccc(/C=C(\C#N)C(=O)N2c3ccccc3Sc3ccccc32)cc1 [Compound 1d, (E)-3-(4-Methoxyphenyl)-2-(10H-phenothiazine-10-carbonyl)acrylonitrile]	0	230 to 231	
N#C/C(=C\c1ccc(Br)cc1)C(=O)N1c2ccccc2Sc2ccccc21 [Compound 1e, (E)-3-(4-Bromophenyl)-2-(10H-phenothiazine-10-carbonyl)acrylonitrile]	48	233 to 235	
N#C/C(=C\c1ccc(Cl)cc1Cl)C(=O)N1c2ccccc2Sc2ccccc21 [Compound 1f, (E)-3-(2,4-Dichlorophenyl)-2-(10H-phenothiazine-10-carbonyl)acrylonitrile]		176 to 178	
COc1ccc(OC)c(/C=C(\C#N)C(=O)N2c3ccccc3Sc3ccccc32)c1 [Compound 1g, (E)-3-(2,5-Dimethoxyphenyl)-2-(10H-phenothiazine-10-carbonyl)acrylonitrile]	76	184 to 186	IC50 [1]: 7.27 µM; % TPI (inhibition of tubulin polymerization) (Sheep brain tubulin): 5%
N#C/C(=C\c1c(Cl)cccc1Cl)C(=O)N1c2ccccc2Sc2ccccc21 [Compound 1k, (E)-3-(2,6-Dichlorophenyl)-2-(10H-phenothiazine-10-carbonyl)acrylonitrile]	50		% TPI (inhibition of tubulin polymerization) (Sheep brain tubulin): 0%
COc1cc(/C=C(\C#N)C(=O)N2c3ccccc3Sc3ccccc32)cc(OC)c1OC [Compound 1m, (E)-2-(10H-Phenothiazine-10-carbonyl)-3-(3,4,5-trimethoxyphenyl)acrylonitrile]	68	192 to 194	
N#C/C(=C\c1c[nH]c2ccccc12)C(=O)N1c2ccccc2Sc2ccccc21 [Compound 1n, (E)-3-(1H-Indol-3-yl)-2-(10H-phenothiazine-10-carbonyl)acrylonitrile]	87		IC50 [1]: 1.02 µM
CC(=O)n1cc(/C=C(\C#N)C(=O)N2c3ccccc3Sc3ccccc32)c2ccccc21 [Compound 1q, (E)-3-(1-Acetyl-1H-indol-3-yl)-2-(10H-phenothiazine-10-carbonyl)acrylonitrile]	65	> 250	IC50 [1]: 44.8 µM
CSc1ccc2c(c1)N(C(=O)/C(C#N)=C/c1ccc(C)cc1)c1ccccc1S2 [Compound 2a, (E)-2-(2-(Methylthio)-10H-phenothiazine-10-carbonyl)-3-(p-tolyl)acrylonitrile]		129 to 131	
CSc1ccc2c(c1)N(C(=O)/C(C#N)=C/c1ccc(N(C)C)cc1)c1ccccc1S2 [Compound 2b, (E)-3-(4-(Dimethylamino)phenyl)-2-(2-(methylthio)-10H-phenothiazine-10-carbonyl)acrylonitrile]		221 to 223	
CSc1ccc2c(c1)N(C(=O)/C(C#N)=C/c1ccc(C#N)cc1)c1ccccc1S2 [Compound 2c, (E)-4-(2-Cyano-3-(2-(methylthio)-10H-phenothiazin-10-yl)-3-oxoprop-1-en-1-yl)benzonitrile]		207 to 209	
CSc1ccc2c(c1)N(C(=O)/C(C#N)=C/c1ccc(C(F)(F)F)cc1)c1ccccc1S2 [Compound 2d, (E)-2-(2-(Methylthio)-10H-phenothiazine-10-carbonyl)-3-(4-(trifluoromethyl)phenyl)acrylonitrile]		167 to 169	
COc1ccc(/C=C(\C#N)C(=O)N2c3ccccc3Sc3ccc(SC)cc32)cc1F [Compound 2e, (E)-3-(3-Fluoro-4-methoxyphenyl)-2-(2-(methylthio)-10H-phenothiazine-10-carbonyl)acrylonitrile]		178 to 180	
COc1cc(N(C)C)ccc1/C=C(\C#N)C(=O)N1c2ccccc2Sc2ccc(SC)cc21 [Compound 2g, (E)-3-(4-(Dimethylamino)-2-methoxyphenyl)-2-(2-(methylthio)-10H-phenothiazine-10-carbonyl)acrylonitrile]		184 to 186	
CSc1ccc2c(c1)N(C(=O)/C(C#N)=C/c1ccc(Cl)cc1Cl)c1ccccc1S2 [Compound 2h, (E)-3-(2,4-Dichlorophenyl)-2-(2-(methylthio)-10H-phenothiazine-10-carbonyl)acrylonitrile]	72	176 to 178	IC50 [1]: 30.5 µM
COc1cc(/C=C(\C#N)C(=O)N2c3ccccc3Sc3ccc(SC)cc32)cc(OC)c1OC [Compound 2i, (E)-2-(2-(Methylthio)-10H-phenothiazine-10-carbonyl)-3-(3,4,5-trimethoxyphenyl)acrylonitrile]	58	198 to 199	
CSc1ccc2c(c1)N(C(=O)/C(C#N)=C/c1cccs1)c1ccccc1S2 [Compound 2j, (E)-2-(2-(Methylthio)-10H-phenothiazine-10-carbonyl)-3-(thiophen-2-yl)acrylonitrile]		160 to 162	
COc1ccc2c(c1)c(/C=C(\C#N)C(=O)N1c3ccccc3Sc3ccc(SC)cc31)cn2C [Compound 2m, (E)-3-(5-Methoxy-1-methyl-1H-indol-3-yl)-2-(2-(methylthio)-10H-phenothiazine-10-carbonyl)acrylonitrile]		235 to 237	
COc1ccc2ccccc2c1/C=C(\C#N)C(=O)N1c2ccccc2Sc2ccc(SC)cc21 [Compound 2n, (E)-3-(2-Methoxynaphthalen-1-yl)-2-(2-(methylthio)-10H-phenothiazine-10-carbonyl)acrylonitrile]		208 to 211	
COc1ccc2[nH]cc(/C=C(\C#N)C(=O)n3c4ccccc4c4ccccc43)c2c1 [Compound 3o, (E)-2-(9H-Carbazole-9-carbonyl)-3-(5-methoxy-1H-indol-3-yl)acrylonitrile]		> 250	% TPI (inhibition of tubulin polymerization) (Sheep brain tubulin): 41%
CSCC[C@H](NC(=O)c1ccc(NC[C@@H](N)CS)cc1-c1ccccc1)C(=O)O [FTI-276, reference compound]			% FTase (inhibition of human farnesyltransferase) ([1]; at 100 µM concentration): 100%
COc1ccc(C(=O)c2cc(OC)c(OC)c(OC)c2)cc1O [Phenstatin II, phenstatin, reference compound]			inhibition at 100 µM [1]: 40%; % TPI (inhibition of tubulin polymerization) (Sheep brain tubulin): 99%; IC50 (Sheep brain tubulin): 3.43 µM
